TD50 and carcinogen call data for five molecules are collected here from PubChem BioAssay AID1745844 (Carcinogenic Potency Database (CPDB), 2022).

Activity calls are given as the source filed them. The rule behind the calls is not given here.

The series deals with rodent lifetime carcinogenesis bioassay, tumor incidence TD50. The series can be described thus: chronic cancer bioassays in animals – CPDB, compiled studies (AID 1745844).

As a reminder, the TD50 is the 50% point of the dose-response relation for the toxic effect studied. Turning to `O=[N+]([O-])c1cccc2cccnc12`, the TD50 reads like this: (rat, strain Fischer 344, females, in feed, site: forestomach, lesion: squamous-cell carcinoma, dosed 104 weeks, study length 104 weeks) 32.8 mg/kg/day; (rat, strain Fischer 344, females, in feed, site: forestomach, lesion: squamous-cell papilloma, dosed 104 weeks, study length 104 weeks) 9.55 mg/kg/day; (rat, strain Fischer 344, males, in feed, site: forestomach, lesion: squamous-cell carcinoma, dosed 104 weeks, study length 104 weeks) 24.9 mg/kg/day; (rat, strain Fischer 344, males, in feed, site: forestomach, lesion: squamous-cell papilloma, dosed 104 weeks, study length 104 weeks) 10.1 mg/kg/day. Besides, the carcinogen call (rat, strain Fischer 344, females, in feed, site: liver, lesion: hyperplastic nodule, dosed 104 weeks, study length 104 weeks) is “negative (inactive)” and the carcinogen call (rat, strain Fischer 344, males, in feed, site: liver, lesion: hyperplastic nodule, dosed 104 weeks, study length 104 weeks) is “negative (inactive)”.
Regarding `Nc1ccc(-c2ccccc2)cc1O`, the carcinogen call (rat, strain Not specified, females, in feed, site: liver, lesion: one or several types, types not named, dosed 43 weeks, study length 65 weeks) was “negative (inactive)”.
For `C=COC(C)=O`, the TD50 runs as follows: (mouse, strain Charles River CD1, males, inhaled, site: lung, lesion: squamous-cell carcinoma, dosed 104 weeks, study length 104 weeks) 32000 mg/kg/day; (mouse, strain Swiss, females, in drinking water, site: Zymbal's gland, lesion: carcinoma, dosed 78 weeks, study length 151 weeks) 36000 mg/kg/day; (mouse, strain Swiss, females, in drinking water, site: any site (literature study), lesion: benign tumor, dosed 78 weeks, study length 151 weeks) 2030 mg/kg/day; (mouse, strain Swiss, females, in drinking water, site: any site (literature study), lesion: malignant tumor, dosed 78 weeks, study length 151 weeks) 3440 mg/kg/day; (mouse, strain Swiss, females, in drinking water, site: esophagus, lesion: acanthoma, dosed 78 weeks, study length 151 weeks) 36000 mg/kg/day; (mouse, strain Swiss, females, in drinking water, site: esophagus, lesion: squamous-cell carcinoma, dosed 78 weeks, study length 151 weeks) 5640 mg/kg/day. Besides, the TD50 was 6850 mg/kg/day (mouse, strain Swiss, females, in drinking water, site: forestomach, lesion: acanthoma, dosed 78 weeks, study length 151 weeks); 11700 mg/kg/day (mouse, strain Swiss, females, in drinking water, site: forestomach, lesion: squamous-cell carcinoma, dosed 78 weeks, study length 151 weeks); 29900 mg/kg/day (mouse, strain Swiss, females, in drinking water, site: lung, lesion: adenocarcinoma, dosed 78 weeks, study length 151 weeks); 11700 mg/kg/day (mouse, strain Swiss, females, in drinking water, site: lung, lesion: adenoma, dosed 78 weeks, study length 151 weeks); 7640 mg/kg/day (mouse, strain Swiss, females, in drinking water, site: lung, lesion: several types, types named in the paper, dosed 78 weeks, study length 151 weeks); 36000 mg/kg/day (mouse, strain Swiss, females, in drinking water, site: oral cavity, lesion: squamous-cell carcinoma, dosed 78 weeks, study length 151 weeks). Also, the TD50 (mouse, strain Swiss, females, in drinking water, site: stomach, lesion: adenocarcinoma, dosed 78 weeks, study length 151 weeks) is 36000 mg/kg/day; the TD50 (mouse, strain Swiss, females, in drinking water, site: tongue, lesion: squamous-cell carcinoma, dosed 78 weeks, study length 151 weeks) was 8760 mg/kg/day; the TD50 (mouse, strain Swiss, females, in drinking water, site: uterus, lesion: adenocarcinoma, dosed 78 weeks, study length 151 weeks) stood at 5570 mg/kg/day; the TD50 (mouse, strain Swiss, females, in drinking water, site: uterus, lesion: leiomyoma, dosed 78 weeks, study length 151 weeks) was determined as 26100 mg/kg/day; the TD50 (mouse, strain Swiss, females, in drinking water, site: uterus, lesion: leiomyosarcoma, dosed 78 weeks, study length 151 weeks) worked out at 26100 mg/kg/day; the TD50 (mouse, strain Swiss, females, in drinking water, site: uterus, lesion: malignant tumor, dosed 78 weeks, study length 151 weeks) was 3920 mg/kg/day. For the same molecule, the TD50 was determined as 6040 mg/kg/day (mouse, strain Swiss, males, in drinking water, site: any site (literature study), lesion: benign tumor, dosed 78 weeks, study length 135 weeks); 552 mg/kg/day (mouse, strain Swiss, males, in drinking water, site: any site (literature study), lesion: malignant tumor, dosed 78 weeks, study length 135 weeks); 9330 mg/kg/day (mouse, strain Swiss, males, in drinking water, site: forestomach, lesion: acanthoma, dosed 78 weeks, study length 135 weeks); 68200 mg/kg/day (mouse, strain Swiss, males, in drinking water, site: lung, lesion: adenocarcinoma, dosed 78 weeks, study length 135 weeks); 5750 mg/kg/day (mouse, strain Swiss, males, in drinking water, site: lung, lesion: adenoma, dosed 78 weeks, study length 135 weeks); 28000 mg/kg/day (mouse, strain Swiss, males, in drinking water, site: lung, lesion: several types, types named in the paper, dosed 78 weeks, study length 135 weeks). For the same molecule, the TD50 is, setting by setting: (mouse, strain Swiss, males, in drinking water, site: oral cavity, lesion: squamous-cell carcinoma, dosed 78 weeks, study length 135 weeks) 9330 mg/kg/day; (mouse, strain Swiss, males, in drinking water, site: stomach, lesion: adenocarcinoma, dosed 78 weeks, study length 135 weeks) 9330 mg/kg/day; (mouse, strain Swiss, males, in drinking water, site: tongue, lesion: squamous-cell carcinoma, dosed 78 weeks, study length 135 weeks) 9330 mg/kg/day; (rat, strain Charles River CD (Sprague-Dawley), females, inhaled, site: larynx, lesion: squamous-cell carcinoma, dosed 104 weeks, study length 104 weeks) 9050 mg/kg/day; (rat, strain Charles River CD (Sprague-Dawley), females, inhaled, site: nose, lesion: squamous-cell carcinoma, dosed 104 weeks, study length 104 weeks) 2220 mg/kg/day; (rat, strain Charles River CD (Sprague-Dawley), males, inhaled, site: nose, lesion: benign tumor, dosed 104 weeks, study length 104 weeks) 1240 mg/kg/day. Moreover, the TD50 was 6310 mg/kg/day (rat, strain Charles River CD (Sprague-Dawley), males, inhaled, site: nose, lesion: carcinoma, in situ, dosed 104 weeks, study length 104 weeks); 2080 mg/kg/day (rat, strain Charles River CD (Sprague-Dawley), males, inhaled, site: nose, lesion: malignant tumor, dosed 104 weeks, study length 104 weeks); 1550 mg/kg/day (rat, strain Charles River CD (Sprague-Dawley), males, inhaled, site: nose, lesion: papilloma, inverted, dosed 104 weeks, study length 104 weeks); 758 mg/kg/day (rat, strain Charles River CD (Sprague-Dawley), males, inhaled, site: nose, lesion: several types, types named in the paper, dosed 104 weeks, study length 104 weeks); 3140 mg/kg/day (rat, strain Charles River CD (Sprague-Dawley), males, inhaled, site: nose, lesion: squamous-cell carcinoma, dosed 104 weeks, study length 104 weeks); 488 mg/kg/day (rat, strain Fischer 344, females, in drinking water, site: liver, lesion: neoplastic nodule, dosed 100 weeks, study length 130 weeks). Further, the TD50 (rat, strain Fischer 344, females, in drinking water, site: thyroid gland, lesion: c-cell adenoma, dosed 100 weeks, study length 130 weeks) is 420 mg/kg/day; the TD50 (rat, strain Fischer 344, females, in drinking water, site: thyroid gland, lesion: c-cell carcinoma, dosed 100 weeks, study length 130 weeks) is 25500 mg/kg/day; the TD50 (rat, strain Fischer 344, females, in drinking water, site: uterus, lesion: adenocarcinoma, dosed 100 weeks, study length 130 weeks) is 494 mg/kg/day; the TD50 (rat, strain Fischer 344, males, in drinking water, site: any site (literature study), lesion: several types, types named in the paper, dosed 100 weeks, study length 130 weeks) was determined as 57.7 mg/kg/day; the TD50 (rat, strain Fischer 344, males, in drinking water, site: liver, lesion: neoplastic nodule, dosed 100 weeks, study length 130 weeks) was 132 mg/kg/day. Besides, the carcinogen call (rat, strain Fischer 344, males, in drinking water, site: thyroid gland, lesion: c-cell carcinoma, dosed 100 weeks, study length 130 weeks) is “positive”.
`CC(C)C/C=N/N(C)C=O`: the TD50 runs as follows: (mouse, strain Swiss albino, females, by gavage, site: gall bladder, lesion: adenocarcinoma, dosed 53 weeks, study length 127 weeks) 151 mg/kg/day; (mouse, strain Swiss albino, females, by gavage, site: gall bladder, lesion: adenoma, dosed 53 weeks, study length 127 weeks) 36.5 mg/kg/day; (mouse, strain Swiss albino, females, by gavage, site: gall bladder, lesion: several types, types named in the paper, dosed 53 weeks, study length 127 weeks) 28.9 mg/kg/day; (mouse, strain Swiss albino, females, by gavage, site: liver, lesion: hepatocellular carcinoma, dosed 53 weeks, study length 127 weeks) 74.6 mg/kg/day; (mouse, strain Swiss albino, females, by gavage, site: liver, lesion: hepatoma, dosed 53 weeks, study length 127 weeks) 9.27 mg/kg/day; (mouse, strain Swiss albino, females, by gavage, site: liver, lesion: several types, types named in the paper, dosed 53 weeks, study length 127 weeks) 7.9 mg/kg/day. The TD50 (mouse, strain Swiss albino, females, by gavage, site: lung, lesion: adenocarcinoma, dosed 53 weeks, study length 127 weeks) came to 8.7 mg/kg/day; the TD50 (mouse, strain Swiss albino, females, by gavage, site: lung, lesion: adenoma, dosed 53 weeks, study length 127 weeks) was 2.39 mg/kg/day; the TD50 (mouse, strain Swiss albino, females, by gavage, site: lung, lesion: several types, types named in the paper, dosed 53 weeks, study length 127 weeks) was 1.99 mg/kg/day; the TD50 (mouse, strain Swiss albino, males, by gavage, site: gall bladder, lesion: adenoma, dosed 53 weeks, study length 119 weeks) was 46.1 mg/kg/day; the TD50 (mouse, strain Swiss albino, males, by gavage, site: liver, lesion: hepatocellular carcinoma, dosed 53 weeks, study length 119 weeks) came to 34.2 mg/kg/day; the TD50 (mouse, strain Swiss albino, males, by gavage, site: liver, lesion: hepatoma, dosed 53 weeks, study length 119 weeks) was determined as 8 mg/kg/day. The TD50 runs as follows: (mouse, strain Swiss albino, males, by gavage, site: liver, lesion: several types, types named in the paper, dosed 53 weeks, study length 119 weeks) 5.97 mg/kg/day; (mouse, strain Swiss albino, males, by gavage, site: lung, lesion: adenocarcinoma, dosed 53 weeks, study length 119 weeks) 10.7 mg/kg/day; (mouse, strain Swiss albino, males, by gavage, site: lung, lesion: adenoma, dosed 53 weeks, study length 119 weeks) 3.3 mg/kg/day; (mouse, strain Swiss albino, males, by gavage, site: lung, lesion: several types, types named in the paper, dosed 53 weeks, study length 119 weeks) 2.53 mg/kg/day; (mouse, strain Swiss albino, males, by gavage, site: preputial gland, lesion: several types, types named in the paper, dosed 53 weeks, study length 119 weeks) 4.36 mg/kg/day; (mouse, strain Swiss albino, males, by gavage, site: preputial gland, lesion: squamous-cell carcinoma, dosed 53 weeks, study length 119 weeks) 5.59 mg/kg/day. The same molecule gave a TD50 (mouse, strain Swiss albino, males, by gavage, site: preputial gland, lesion: squamous-cell papilloma, dosed 53 weeks, study length 119 weeks) of 34.2 mg/kg/day.
With `CC(=O)CNCC(O)C(O)N=O` (configuration not stated), the TD50 was 0.754 mg/kg/day (hamster, strain Syrian Golden, females, by gavage, site: forestomach, lesion: several types, types named in the paper, dosed 35 weeks, study length 55 weeks); 0.868 mg/kg/day (hamster, strain Syrian Golden, females, by gavage, site: forestomach, lesion: squamous-cell papilloma, dosed 35 weeks, study length 55 weeks); 9.92 mg/kg/day (hamster, strain Syrian Golden, females, by gavage, site: liver, lesion: hepatocellular adenoma, dosed 35 weeks, study length 55 weeks); 20.4 mg/kg/day (hamster, strain Syrian Golden, females, by gavage, site: liver, lesion: hepatocellular carcinoma, dosed 35 weeks, study length 55 weeks); 9.92 mg/kg/day (hamster, strain Syrian Golden, females, by gavage, site: liver, lesion: several types, types named in the paper, dosed 35 weeks, study length 55 weeks); 20.4 mg/kg/day (hamster, strain Syrian Golden, females, by gavage, site: lung, lesion: carcinoma, dosed 35 weeks, study length 55 weeks). For the same molecule, the TD50 reads like this: (hamster, strain Syrian Golden, females, by gavage, site: pancreatic duct, lesion: several types, types named in the paper, dosed 35 weeks, study length 55 weeks) 3.63 mg/kg/day; (rat, strain Fischer 344, females, in drinking water, site: esophagus, lesion: carcinoma, dosed 31 weeks, study length 55 weeks) 0.0637 mg/kg/day; (rat, strain Fischer 344, females, in drinking water, site: esophagus, lesion: several types, types named in the paper, dosed 31 weeks, study length 55 weeks) 0.0352 mg/kg/day; (rat, strain Fischer 344, females, in drinking water, site: forestomach, lesion: carcinoma, dosed 31 weeks, study length 55 weeks) 0.155 mg/kg/day; (rat, strain Fischer 344, females, in drinking water, site: forestomach, lesion: several types, types named in the paper, dosed 31 weeks, study length 55 weeks) 0.0482 mg/kg/day; (rat, strain Fischer 344, females, in drinking water, site: liver, lesion: hepatocellular carcinoma, dosed 31 weeks, study length 55 weeks) 1.3 mg/kg/day (inactive). Moreover, the TD50 is, setting by setting: (rat, strain Fischer 344, females, in drinking water, site: tongue, lesion: carcinoma, dosed 31 weeks, study length 55 weeks) 0.0964 mg/kg/day; (rat, strain Fischer 344, females, in drinking water, site: tongue, lesion: several types, types named in the paper, dosed 31 weeks, study length 55 weeks) 0.0555 mg/kg/day.
